Assay results as given in US5583222A, “Azepanes and their ring homologues having protein kinase inhibiting activity” (Hoffmann-La Roche Inc., priority 1994, dated 1996).
Where a name gives a salt, the structure may show the parent alone.

How the values were obtained:
HaCaT-cells = test: Inhibition of keratinocyte proliferation a) HaCaT-cells; type: cell-based; settings: Homo sapiens, 48 hours, [3H]thymidine incorporation, read-out: Test Procedure E a: IC50, inhibition of keratinocyte proliferation
Protocol: (§1) E Inhibition of keratinocyte proliferation: a) HaCaT-cells (immortalised human cells line): HaCaT-cell culture is effected in medium DMEM/F12 (mixture ratio 3/1) which contains serum (FCS, 5%), epidermal growth factor (EGF), hydrocortisone, cholera toxin, insulin, L-glutamine and penicillin/streptomycin. 5000 cells in 0.2 ml of medium are used per well in microtitre plates. The test substances are diluted in dimethyl sulphoxide/(DMSO)/medium and used in the concentration range 0.01-10 μM at the start of the culture. The cells are then incubated at 37° C. for 48 hours; radioactive [^3 H]thymidine is added during the last 6 hours. After disrupting the cells with trypsin incorporated activity is measured in a scintillation counter. The inhibitory activity of the test substance is given as the micromolar concentration which is required to reduce the thymidine incorporation by 50% (IC50 [μM]).

T-lymphocyte = test: Inhibition of T-lymphocyte proliferation; type: cell-based; settings: human mononuclear cells, PHA 1 μg/ml, [3H]thymidine, 3rd and 4th day, read-out: Test Procedure D: IC50, inhibition of T-lymphocyte proliferation
Protocol: D: Inhibition of T-lymphocyte proliferation: Human mononuclear cells are isolated from venous blood of a healthy donor and a suspension of 5×10^5 cells/ml in RPMI 1640 medium, which contains 10% FCS, is prepared. The cells are stimulated with 1 μg/ml of T-cell-specific mitogen phytohaemagglutinin (PHA). 200 μl aliquots of cell suspension are treated in microtitre plates with the test substances in serial dilutions in the concentration range 0.03-10 μM. The cell proliferation is measured on the 3rd and 4th day by incubation with 1 μCi of [^3 H]thymidine during the last 6 hours of the respective day. The radioactivity taken up is measured with a liquid scintillation counter.

protein kinase C (PKC) [1] = test: Inhibition of protein kinase C (PKC) (in cells), MARCKS phosphorylation in 3T3 fibroblasts; type: cell-based; settings: Fibroblast, TPA 100 nM, phosphorylation of 80 kD MARCKS protein, 37° C., read-out: Test Procedure C: IC50, inhibition of PKC in cells
Protocol: C: Inhibition of protein kinase C (PKC) (in cells): The intracellular protein kinase C (PKC) activity is determined in 3T3 fibroblasts by measuring the phosphorylation of a PKC-specific substrate, namely 80 kD MARCKS protein (myristoylated alanine-rich C-kinase substrate). The endogenous ATP is firstly labelled by incubating the cells at 37° C. with 80-200 μCi/ml of inorganic ^32 P-labelled phosphate. Then, the activation of the PKC is effected by phorbol ester (tetradecanoyl-phorbol 13-acetate (TPA); 100 nM). The test substances are used 15 minutes prior to TPA in dimethyl sulphoxide (DMSO)/buffer in the concentration range 0.1-100 μM. After incubation at 37° C. for 15 minutes the reaction is stopped by removing the medium and the cells are lysed by the addition of 1% Triton X-100 in phosphate buffer. The cell extract is subjected to a heat treatment (20 minutes at 90° C.) and subsequently centrifuged, whereby the MARCKS protein remains dissolved in the supernatant. This is then separated by discontinuous, one-dimensional SDS gel electrophoresis and the radioactivity in the 80 kD protein band is measured by a phosphoimager.

[2] = biological target: cAMP-dependent protein kinase (PKA); test: Inhibition of cAMP-dependent protein kinase (PKA); type: biochemical; settings: partially purified PKA from swine brain; histone H1 substrate; 10 μM ATP; 2 μM cyclic AMP; pH 7.4; 32° C., 2 minutes; read-out: Test Procedure B: IC50, inhibition of PKA
Protocol: B: Inhibition of CAMP-dependent protein kinase (PKA): PKA activity is determined by measuring the transfer of ^32 P-labelled phosphate from ^32 P-γ-ATP (10 μM) tO histone H1 (333 μg/ml) as the substrate. Partially purified PKA from swine brain is used as the enzyme source [DEAE chromatography according to the method of U. Kikkawa et al. (Methods Enzymol. 99, 288, 1983)]. Activation of the PKA is effected by cyclic AMP (2 μM) in Tris-HCl buffer (20 mM, pH 7.4). The test substances are used in dimethyl sulphoxide (DMSO)/buffer in the concentration range 0.001-100 μM. The test is started by the addition of enzyme; after incubation at 32° C. for 2 minutes the reaction is stopped by the addition of 20% trichloroacetic acid (with 1% SDS and 1% sodium pyrophosphate). The precipitated radioactive histone protein is separated from excess ATP by filtration over nitrocellulose membranes and the radioactivity on the filter is measured in a scintillation counter. The inhibitory activity of the test substance is given as the micromolar concentration which is required to reduce the PKA activity by 50% (IC50 [μM]).

protein kinase C (PKC) [3] = test: Inhibition of protein kinase C (PKC) (isolated enzyme); type: biochemical; settings: partially purified PKC from swine brain; histone H1 substrate; 10 μM ATP; pH 7.4; 32° C., 2 minutes; read-out: Test Procedure A: IC50, inhibition of PKC (isolated enzyme)
Protocol: A: Inhibition of protein kinase C (PKC) (isolated enzyme): Protein kinase C (PKC) activity is determined by measuring the transfer of ^32 P-labelled phosphate from ^32 P-γ-ATP (10 μM)to histone H1 (200 μg/ml) as the substrate. Partially purified PKC from swine brain is used as the enzyme source [DEAE chromatography according to the method of U. Kikkawa et al. (Methods Enzymol. 99, 288, 1983)]. Activation of the PKC is effected by phospholipid vesicle prepared by ultrasound treatment of a mixture of 0.05 ml of phosphatidylserine (10 mg/ml) and 0.005 ml of diolein (10 mg/ml) in 5 ml of Tris-HCl buffer (20 mM, pH 7.4). The test substances are used in dimethyl sulphoxide (DMSO)/buffer in the concentration range 0.001-100 μM. The test is started by the addition of enzyme; after incubation at 32° C. for 2 minutes the reaction is stopped by the addition of 20% trichloroacetic acid (with 1% SDS and 1% sodium pyrophosphate). The precipitated radioactive histone protein is separated from excess ATP by filtration over nitrocellulose membranes and the radioactivity on the filter is measured in a scintillation counter. The inhibitory activity of the test substance is given as the micromolar concentration which is required to reduce the PKC activity by 50% (IC50 [μM]).

Primary keratinocytes = test: Inhibition of keratinocyte proliferation b) Primary keratinocytes; type: cell-based; settings: primary keratinocytes from human foreskin, 48 hours, [3H]thymidine incorporation, read-out: Test Procedure E b: IC50, inhibition of keratinocyte proliferation
Protocol: as §1, with “proliferation:” for “proliferation: a) HaCaT-cells (immortalised human cells line):”, “[μM]). b) Primary keratinocytes: Keratinocytes, isolated from human foreskin, are used in the primary culture up to passage 7. The culture and test conditions are identical with those of the HaCaT-cells with the exception of the use of 10000 cells per well.” for “[μM]).”

Compound | IC50 (HaCaT-cells) [nM] | IC50 (T-lymphocyte) [nM] | IC50 (protein kinase C (PKC) [1]) [nM] | IC50 [2] [nM] | IC50 (protein kinase C (PKC) [3]) [nM] | IC50 (Primary keratinocytes) [nM]
COc1ccc(O)c(C(=O)c2ccc(C(=O)O[C@@H]3CCCNC[C@H]3NC(=O)c3cc(C)c(O)c(C)c3)cc2)c1F [Example 20, 4-(2-Fluoro-6-hydroxy-3-methoxy-benzoyl)-benzoic acid (3R,4R)-3-(4-hydroxy-3,5-dimethyl-benzoylamino)-azepan-4-yl ester hydrochloride (1:1)] | 3000 to 10000 | 100 to 6000 | 340 |  |  | 
Cc1cc(C(=O)N[C@@H]2CNCCC[C@H]2OC(=O)c2ccc(C(=O)c3c(O)ccc(F)c3F)cc2)cc(C)c1O [Example 25, 4-(2,3-Difluoro-6-hydroxy-benzoyl)-benzoic acid (3R,4R)3-(4-hydroxy-3,5-dimethyl-benzoylamino)-azepan-4-yl ester hydrochloride (1:1)] |  | 1000 | 800 | 14 | 40 | 
Cc1cc(C(=O)N[C@@H]2CNCCC[C@H]2OC(=O)c2ccc(C(=O)c3c(O)ccc4c3OCCO4)cc2)cc(C)c1O [Example 41] |  | 300 | > 1000 | 13 | 40 | 
COc1cc(O)c(C(=O)c2ccc(C(=O)O[C@@H]3CCCNC[C@H]3NC(=O)c3ccc(O)cc3)cc2)c(F)c1 [Example 57, 4-(2-Fluoro-6-hydroxy-4-methoxy-benzoyl)-benzoic acid (3R,4R)-3-(4-hydroxy-benzoylamino)-azepan-4-yl ester hydrochloride (1:1)] | 300 to 600 |  | 2000 | 5 | 867 | 600
O=C(N[C@@H]1CNCCC[C@H]1OC(=O)c1ccc(C(=O)c2cc3ccccc3cc2O)cc1)c1ccc(O)cc1 [Example 60, 4-(3-Hydroxy-naphthalen-2-ylcarbonyl)-benzoic acid (3R,4R)-3-(4-hydroxy-benzoylamino)-azepan-4-yl ester hydrochloride (1:1)] | 300 to 500 | 2000 to 5000 | 2700 | 9 | 1200 | 300 to 6000
